Structures can show the parent of a compound that is named as a salt.
Key:
Papaver rhoeas [1] = assay: Example 1 field trial, 2-4 leaf stage: herbicidal effect; format: in vivo; conditions: 28 days after application
Protocol: (§1) The herbicidal efficacy of the active compounds or active compound mixtures was scored visually using the treated plots in comparison to untreated control plots. The damage and development of all above-ground parts of the plants were recorded. Scoring was carried out using a percentage scale (100% effect=all plants killed; 50% effect=50% of the plants and the green parts of the plants killed; 0% effect=no noticeable effect=like control plot. The scores of in each case 4 plots were averaged.
(§2) If the observed activity values already exceed the formal sum of the values for the trials with the individual applications, they also exceed the expected value according to Colby which is calculated using the following formula and which is likewise considered to be an indication of synergism (cf. S. R. Colby; in Weeds 15 (1967) p. 20 to 22):
(§3) Crop plants were grown outdoors on plots under natural outdoor conditions, and seeds or rhizome pieces of typical harmful plants were laid out or the natural weed growth was utilized. Treatment with the compositions according to the invention was carried out after the harmful plants had emerged and the crop plants were, generally, at the 2- to 4-leaf stage; in some cases (as stated), application of individual active compounds or active compound combinations was carried out pre-emergence (cf. Section 1) or post-emergence (cf. Section 2) or as a sequential treatment partly pre-emergence and/or post-emergence. After the application, for example 2, 4, 6 and 8 weeks after the application, the effect of the preparations was scored visually by comparison with untreated controls (cf. scoring in Section 1). In the field trial as well, the compositions according to the invention have synergistic herbicidal activity against a broad spectrum of economically important weed grasses and broad-leaved weeds. […] Moreover, the effects in essential phases of the scoring period were above the expected values according to Colby, also indicating synergism. In contrast, the crop plants were, as a consequence of the treatments with the herbicidal compositions, damaged only to a small degree, if at all.

Papaver rhoeas [2] = assay: Example 2 field trial, fall application 2-4 leaf stage: herbicidal effect; format: in vivo; conditions: 45 days after the application
Protocol: as §1, §2
(§4) Crop plants were grown outdoors on plots under natural outdoor conditions, and seeds or rhizome pieces of typical harmful plants were laid out or the natural weed growth was utilized. […] After the application, for example 2, 4, 6 and 8 weeks after the application, the effect of the preparations was scored visually by comparison with untreated controls (cf. scoring in Section 1). […]

winter wheat [3] = assay: Example 4 field trial, application fall 2-4 leaf stage: crop damage; format: in vivo, Triticum aestivum; conditions: 100 g of ai/ha; 60 days after application
Protocol: as §1, §2, §4

winter barley [4] = assay: Example 1 field trial, 2-4 leaf stage: crop damage; format: in vivo, Hordeum vulgare; conditions: 28 days after application
Protocol: as §1, §2, §3

winter wheat [5] = assay: Example 3 field trial, fall application 2-4 leaf stage: crop damage; format: in vivo, Triticum aestivum; conditions: 60 days after application
Protocol: as §1, §2, §4

Papaver rhoeas [6] = assay: Example 5 field trial, 2-4 leaf stage: herbicidal effect; format: in vivo; conditions: 28 days after application
Protocol: as §1, §2
as §3, with “In contrast, the crop plants were, as a consequence of the treatments with the herbicidal compositions, damaged only to a small degree, if at all.” left out

winter barley [7] = assay: Example 2 field trial, fall application 2-4 leaf stage: crop damage; format: in vivo, Hordeum vulgare; conditions: 45 days after the application
Protocol: as §1, §2, §4

Viola arvensis [8] = assay: Example 3 field trial, fall application 2-4 leaf stage: herbicidal effect; format: in vivo; conditions: 60 days after application
Protocol: as §1, §2, §4

Aphanes arvensis = assay: Example 4 field trial, application fall 2-4 leaf stage: herbicidal effect; format: in vivo; conditions: 100 g of ai/ha; 60 days after application
Protocol: as §1, §2, §4

Veronica hederifolia = assay: as above; format: in vivo; conditions: 100 g of ai/ha; 60 days after application
Protocol: as §1, §2, §4

winter barley [9] = assay: Example 5 field trial, 2-4 leaf stage: crop damage; format: in vivo, Hordeum vulgare; conditions: 28 days after application
Protocol: as §1, §2
as §3, with “In contrast, the crop plants were, as a consequence of the treatments with the herbicidal compositions, damaged only to a small degree, if at all.” left out

winter wheat [10] = assay: Example 16 field trial, post-emergence, 2- to 3-leaf stage: crop damage; format: in vivo, Triticum aestivum; conditions: in vivo
Protocol: as §1, §2, §4

winter wheat [11] = assay: Example 10 pre-emergence application, fall: crop damage; format: in vivo, Triticum aestivum; conditions: winter wheat (Triticum aestivum), in vivo, 169 days
Excerpt: (§5) Seeds or rhizome pieces of monocotyledonous and dicotyledonous weed plants are placed in sandy loam soil in pots and covered with soil. The compositions, formulated in the form of concentrated aqueous solutions, wettable powders or emulsion concentrates, are then applied to the surface of the soil cover as aqueous solution, suspension or emulsion at an application rate of 600 to 800 l of water/ha (converted), in various dosages. After the treatment, the pots are placed in a greenhouse and kept under good growth conditions for the weeds. After the test plants have emerged, the damage to the plants or the negative effects on the emergence is scored visually after a test period of 3 to 4 weeks by comparison with untreated controls. As shown by the test results, the compositions according to the invention have good herbicidal pre-emergence activity against a broad spectrum of weed grasses and broad-leaved weeds.
as §1, §2, §3

Galium aparine [12] = assay: Example 10 pre-emergence application, fall: herbicidal effect; format: in vivo; conditions: 180 g of ai/ha; 169 days after application
Excerpt: as §5, §1, §2, §3

Papaver rhoeas [13] = assay: Example 16 field trial, post-emergence, 2- to 3-leaf stage: herbicidal effect; format: in vivo; conditions: 180 g of ai/ha; 69 days after application
Protocol: as §1, §2, §3

Viola arvensis [14] = assay: as above; format: in vivo; conditions: 180 g of ai/ha; 69 days after application
Protocol: as §1, §2, §3

Lamium ssp. = assay: as above; format: in vivo; conditions: 180 g of ai/ha; 69 days after application
Protocol: as §1, §2, §3

Myosotis arvensis = assay: as above; format: in vivo; conditions: 180 g of ai/ha; 69 days after application
Protocol: as §1, §2, §3

Matricaria chamomilla = assay: as above; format: in vivo; conditions: 180 g of ai/ha; 69 days after application
Protocol: as §1, §2, §3

Anthemis arvensis = assay: as above; format: in vivo; conditions: 180 g of ai/ha; 69 days after application
Protocol: as §1, §2, §3

Galium aparine [15] = assay: as above; format: in vivo; conditions: 180 g of ai/ha; 69 days after application
Protocol: as §1, §2, §3

winter barley [16] = assay: Example 16 field trial, post-emergence, 2- to 3-leaf stage: crop damage; format: in vivo, Hordeum vulgare; conditions: in vivo
Protocol: as §1, §2, §4

Stellaria media = assay: Example 7b field trial, 2-4 leaf stage: herbicidal effect; format: in vivo; conditions: 50 g of ai/ha; 28 days after application
Protocol: as §1, §2, §4

Chenopodium album = assay: Example 7a field trial, 2-4 leaf stage: herbicidal effect; format: in vivo; conditions: 28 days after application
Protocol: as §1, §2
as §3, with “In contrast, the crop plants were, as a consequence of the treatments with the herbicidal compositions, damaged only to a small degree, if at all.” left out

Veronica persicaria = assay: Example 6 field trial, stage begin of VERPE blossom: herbicidal effect; format: in vivo; conditions: 50 g of ai/ha; 28 days after application
Protocol: as §1, §2, §4

winter wheat [17] = assay: Example 6 field trial, stage begin of VERPE blossom: crop damage; format: in vivo, Triticum aestivum; conditions: 50 g of ai/ha; 28 days after application
Protocol: as §1, §2, §4

winter wheat [18] = assay: Example 7a field trial, 2-4 leaf stage: crop damage; format: in vivo, Triticum aestivum; conditions: 28 days after application
Protocol: as §1, §2
as §3, with “In contrast, the crop plants were, as a consequence of the treatments with the herbicidal compositions, damaged only to a small degree, if at all.” left out

winter wheat [19] = assay: Example 7b field trial, 2-4 leaf stage: crop damage; format: in vivo, Triticum aestivum; conditions: 50 g of ai/ha; 28 days after application
Protocol: as §1, §2, §4

Ipomoea hederacea = assay: Example 17 field trial, pre-emergence: herbicidal effect; format: in vivo; conditions: 16 days after application
Excerpt: as §5, §1, §2, §3

Setaria faberi = assay: as above; format: in vivo; conditions: 16 days after application
Excerpt: as §5, §1, §2, §3

Zea mays (corn) = assay: Example 17 field trial, pre-emergence: crop damage; format: in vivo; conditions: in vivo
Excerpt: as §5
The herbicidal efficacy of the active compounds or active compound mixtures was scored visually using the treated plots in comparison to untreated control plots. The damage and development of all above-ground parts of the plants were recorded. […]
as §2, §4

[20] = test system: corn which is glufosinate-ammonium-resistant; assay: Example 18 field trial, 3-leaf stage: crop damage; format: in vivo, Corn (LL); conditions: 31 days after application
Protocol: The damage and development of all above-ground parts of the plants were recorded.
Crop plants were grown outdoors on plots under natural outdoor conditions, and seeds or rhizome pieces of typical harmful plants were laid out or the natural weed growth was utilized.

Elusine indica = assay: Example 18 field trial, 3-leaf stage: herbicidal effect; format: in vivo; conditions: 31 days after application
Protocol: as §1, §2
as §3, with “In contrast, the crop plants were, as a consequence of the treatments with the herbicidal compositions, damaged only to a small degree, if at all.” left out

CC(COc1cccc(Cl)c1)Nc1nc(N)nc(C(C)(C)F)n1 (stereo not drawn) [(A4), 4-amino-6-(1-fluoro-1-methylethyl)-2-[2-(3-chlorophenoxy)-1-methylethyl-amino]-1,3,5-triazine]
herbicidal effect, PAPRH (Papaver rhoeas [1]; 25 g of ai/ha): 0%
herbicidal effect, PAPRH (Papaver rhoeas [1]; 50 g of ai/ha): 0%
herbicidal effect, PAPRH (Papaver rhoeas [1]; 100 g of ai/ha): 0%
herbicidal effect, PAPRH (Papaver rhoeas [2]; 50 g of ai/ha): 0%
herbicidal effect, PAPRH (Papaver rhoeas [2]; 100 g of ai/ha): 0%
damage, TRZAW (winter wheat [3]): 0%
damage, HORVW (winter barley [4]; 25 g of ai/ha): 0%
damage, HORVW (winter barley [4]; 50 g of ai/ha): 0%
damage, HORVW (winter barley [4]; 100 g of ai/ha): 0%
damage, TRZAW (winter wheat [5]; 50 g of ai/ha): 0%
damage, TRZAW (winter wheat [5]; 100 g of ai/ha): 0%
herbicidal effect, PAPRH (Papaver rhoeas [6]; 50 g of ai/ha): 0%
herbicidal effect, PAPRH (Papaver rhoeas [6]; 100 g of ai/ha): 0%
damage, HORVW (winter barley [7]; 50 g of ai/ha): 0%
damage, HORVW (winter barley [7]; 100 g of ai/ha): 0%
herbicidal effect, VIOAR (Viola arvensis [8]; 50 g of ai/ha): 78%
herbicidal effect, VIOAR (Viola arvensis [8]; 100 g of ai/ha): 88%
herbicidal effect, Aphanes arvensis (Aphanes arvensis): 20%
herbicidal effect, Veronica hederifolia (Veronica hederifolia): 40%
damage, HORVW (winter barley [9]; 50 g of ai/ha): 0%
damage, HORVW (winter barley [9]; 100 g of ai/ha): 0%

CC(C)N(C(=O)COc1nnc(C(F)(F)F)s1)c1ccc(F)cc1 [(B1.2.1), fluthiamide, reference compound]
herbicidal effect (%), TRZAW (crop) (winter wheat [10]): 0%
damage, TRZAW (winter wheat [11]): 2%
herbicidal effect, GALAP (Galium aparine [12]): 45%
herbicidal effect (%), PAPRH (Papaver rhoeas [13]): 12%
herbicidal effect (%), VIOAR (Viola arvensis [14]): 20%
herbicidal effect (%), LAMSS (Lamium ssp.): 87%
herbicidal effect (%), MYOAR (Myosotis arvensis): 16%
herbicidal effect (%), MATCH (Matricaria chamomilla): 61%
herbicidal effect (%), ANTAR (Anthemis arvensis): 25%
herbicidal effect (%), GALAP (Galium aparine [15]): 68%
herbicidal effect (%), HORVW (crop) (winter barley [16]): 0%

CCC(CCc1ccccc1)Nc1nc(N)nc(C(C)(C)F)n1 (stereo not drawn) [(A3), 4-amino-6-(1-fluoro-1-methylethyl)-2-(3-phenyl-1-ethylpropylamino)-1,3,5-triazine]
herbicidal effect, STEME (Stellaria media): 48%
herbicidal effect, CHEAL (Chenopodium album; 25 g of ai/ha): 5%
herbicidal effect, CHEAL (Chenopodium album; 50 g of ai/ha): 35%
herbicidal effect, CHEAL (Chenopodium album; 100 g of ai/ha): 85%
herbicidal effect, VERPE (Veronica persicaria): 55%
damage, TRZAW (winter wheat [17]): 0%
damage, TRZAW (winter wheat [18]; 25 g of ai/ha): 1%
damage, TRZAW (winter wheat [18]; 50 g of ai/ha): 0%
damage, TRZAW (winter wheat [18]; 100 g of ai/ha): 10%
damage, TRZAW (winter wheat [19]): 2%

CS(=O)(=O)c1cc(C(F)(F)F)ccc1C(=O)c1cnoc1C1CC1 [(B3.4.5), isoxaflutole, reference compound]
herbicidal effect, IPOHE (Ipomoea hederacea; 105 g of ai/ha): 87%
herbicidal effect, IPOHE (Ipomoea hederacea; 210 g of ai/ha): 85%
herbicidal effect, SETFA (Setaria faberi; 105 g of ai/ha): 90%
herbicidal effect, SETFA (Setaria faberi; 210 g of ai/ha): 93%
damage, ZEAMA (Zea mays (corn)): 0%

CP(=O)(O)CCC(N)C(=O)O (stereo not drawn) [(B4.1.2), glufosinate monoammonium salt]
damage, Corn (LL) ([20]; 300 g of ai/ha): 0%
damage, Corn (LL) ([20]; 600 g of ai/ha): 0%
herbicidal effect, ELEIN (Elusine indica; 300 g of ai/ha): 55%
herbicidal effect, ELEIN (Elusine indica; 600 g of ai/ha): 78%

Reference: patent publication US20040171489A1, “Synergistic active compound combinations for controlling harmful plants” (priority 1998, published 2004)
